Source: ChEMBL document CHEMBL1201862, “PubChem BioAssay data set” (2004)
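Assay format: 96-well plates, 48-hour exposure. GI50 is the concentration that inhibits growth by half.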 The source made the active and inactive calls. No stated cut-off is given here; in the data, active = GI50 up to about 1.1 µM and inactive = higher.

Legend:
Assay in all cases: NCI-60 cell line screen, 48 h
UO-31 = system: UO-31
SNB-75 = system: SNB-75
PC-3 = system: PC-3
SK-MEL-28 = system: SK-MEL-28
MDA-N = system: MDA-N
A498 = system: A498
HOP-62 = system: HOP-62
HCT-15 = system: HCT-15
Malme-3M = system: Malme-3M
LOX IMVI = system: LOX IMVI
MCF7 = system: MCF7
SK-OV-3 = system: SK-OV-3
UACC-62 = system: UACC-62
COLO 205 = system: COLO 205
OVCAR-4 = system: OVCAR-4
MDA-MB-231 = system: MDA-MB-231
NCI/ADR-RES = system: NCI/ADR-RES
SK-MEL-2 = system: SK-MEL-2
SF-539 = system: SF-539
MDA-MB-435 = system: MDA-MB-435

Measured: GI50

COc1cc(OC)c(-c2cc(=O)c3c(OC)c(OC)c(OC)c(OC)c3o2)cc1OC
inactive: UO-31 20.8 µM | SNB-75 14.9 µM | PC-3 88.1 µM | SK-MEL-28 > 100 µM | MDA-N > 100 µM | A498 > 61.2 µM | HOP-62 36.1 µM | Malme-3M > 100 µM | LOX IMVI > 100 µM | MCF7 > 100 µM | SK-OV-3 > 100 µM | UACC-62 29.6 µM | COLO 205 > 100 µM | OVCAR-4 > 90.8 µM | MDA-MB-231 19.8 µM | NCI/ADR-RES 21.9 µM | SK-MEL-2 > 100 µM | SF-539 > 100 µM | MDA-MB-435 > 100 µM
> 100 µM: HCT-15

CC(=O)N1C2=CCCC2(C)c2ccccc21 (stereo not given)
inactive: UO-31 57.5 µM | SNB-75 38.3 µM | PC-3 52.4 µM | SK-MEL-28 > 100 µM | MDA-N > 100 µM | A498 > 100 µM | HOP-62 > 100 µM | Malme-3M 67.5 µM | LOX IMVI > 100 µM | MCF7 > 100 µM | SK-OV-3 > 100 µM | UACC-62 80.4 µM | COLO 205 57.9 µM | OVCAR-4 77.6 µM | MDA-MB-231 > 100 µM | NCI/ADR-RES 57.5 µM | SK-MEL-2 > 100 µM | SF-539 > 100 µM | MDA-MB-435 > 100 µM
> 100 µM: HCT-15

[N-]=[N+]=C1N=CN=C1c1nc[nH]n1
63 µM: HCT-15
inactive: UO-31 19.6 µM | SNB-75 32.3 µM | PC-3 > 100 µM | SK-MEL-28 76.7 µM | MDA-N 41.9 µM | A498 20.2 µM | HOP-62 35.7 µM | Malme-3M 10.9 µM | LOX IMVI 12 µM | MCF7 81.1 µM | SK-OV-3 > 100 µM | UACC-62 16.6 µM | COLO 205 45.1 µM | OVCAR-4 31.8 µM | MDA-MB-231 29 µM | NCI/ADR-RES 22.1 µM | SK-MEL-2 94.8 µM | SF-539 15.3 µM | MDA-MB-435 31.3 µM

N#Cc1c(N)c(-c2ccc(Cl)cc2)c(F)c2ccccc12
> 100 µM: HCT-15
inactive: UO-31 3.2 µM | SNB-75 11.1 µM | PC-3 > 100 µM | SK-MEL-28 > 100 µM | MDA-N > 100 µM | A498 > 100 µM | HOP-62 > 100 µM | Malme-3M > 100 µM | LOX IMVI 94.2 µM | MCF7 6.49 µM | SK-OV-3 > 100 µM | UACC-62 > 100 µM | COLO 205 > 100 µM | OVCAR-4 > 100 µM | MDA-MB-231 66.2 µM | NCI/ADR-RES > 100 µM | SK-MEL-2 > 100 µM | SF-539 > 100 µM | MDA-MB-435 > 100 µM

N#Cc1c(-c2ccccc2)c2c([nH]c1=O)-c1cc([N+](=O)[O-])ccc1CCC2
20.9 µM: HCT-15
active: SNB-75 < 0.01 µM
inactive: UO-31 41.4 µM | PC-3 39.7 µM | SK-MEL-28 29.8 µM | MDA-N 36.5 µM | A498 19 µM | HOP-62 22.7 µM | Malme-3M 51.8 µM | LOX IMVI 25.5 µM | MCF7 27.7 µM | SK-OV-3 36.3 µM | UACC-62 17.5 µM | COLO 205 26.9 µM | OVCAR-4 34 µM | MDA-MB-231 51.8 µM | NCI/ADR-RES 22 µM | SK-MEL-2 25.2 µM | SF-539 27.7 µM | MDA-MB-435 32.3 µM

CNC(=O)[C@H](Cc1ccccc1)NC(=O)N(CCC#N)CCN(C(=O)N[C@@H](Cc1ccccc1)C(=O)OC)c1ccccc1
inactive: UO-31 > 100 µM | SNB-75 16.6 µM | PC-3 > 100 µM | SK-MEL-28 > 100 µM | MDA-N > 100 µM | A498 > 100 µM | HOP-62 > 100 µM | Malme-3M > 100 µM | LOX IMVI > 100 µM | MCF7 15.7 µM | SK-OV-3 > 100 µM | UACC-62 > 100 µM | COLO 205 > 100 µM | OVCAR-4 > 100 µM | MDA-MB-231 > 100 µM | NCI/ADR-RES > 100 µM | SK-MEL-2 > 100 µM | SF-539 > 100 µM | MDA-MB-435 > 100 µM
> 100 µM: HCT-15

O=C(CCCCCCCCC(=O)N1C(=O)CC(=O)N(c2ccc(Cl)cc2)C1=S)N1C(=O)CC(=O)N(c2ccc(Cl)cc2)C1=S
inactive: UO-31 35.7 µM | SNB-75 > 100 µM | PC-3 57.1 µM | SK-MEL-28 70.3 µM | MDA-N 38.6 µM | A498 > 100 µM | HOP-62 80.9 µM | Malme-3M > 100 µM | LOX IMVI 54.8 µM | MCF7 37.8 µM | SK-OV-3 73.3 µM | UACC-62 15.5 µM | COLO 205 32.9 µM | OVCAR-4 41.6 µM | MDA-MB-231 70.8 µM | NCI/ADR-RES 24.5 µM | SK-MEL-2 49.1 µM | SF-539 > 100 µM | MDA-MB-435 58.1 µM
35.6 µM: HCT-15

NCC(O)CN.Oc1c(Cl)c(Cl)c(Cl)c(Cl)c1Cl
18.2 µM: HCT-15
inactive: UO-31 16.5 µM | SNB-75 22.1 µM | PC-3 22 µM | SK-MEL-28 21.2 µM | MDA-N 24.4 µM | A498 17.8 µM | HOP-62 16.2 µM | Malme-3M 17.5 µM | LOX IMVI 17.3 µM | MCF7 32.9 µM | SK-OV-3 21.6 µM | UACC-62 19 µM | COLO 205 21 µM | OVCAR-4 35.9 µM | MDA-MB-231 20.2 µM | NCI/ADR-RES 18.1 µM | SK-MEL-2 22.5 µM | SF-539 24.4 µM | MDA-MB-435 34.4 µM

O=C(O)c1cc(/N=N/c2ccc([N+](=O)[O-])cc2)ccc1O
inactive: UO-31 16.6 µM | SNB-75 38.7 µM | PC-3 33.7 µM | SK-MEL-28 37.7 µM | MDA-N 43.9 µM | A498 19.5 µM | HOP-62 40.6 µM | Malme-3M 42.6 µM | LOX IMVI 39.7 µM | MCF7 30.8 µM | SK-OV-3 81.7 µM | UACC-62 31.3 µM | COLO 205 30.8 µM | OVCAR-4 23.9 µM | MDA-MB-231 26.9 µM | NCI/ADR-RES 30.8 µM | SK-MEL-2 26.5 µM | SF-539 33.3 µM | MDA-MB-435 34.9 µM
31.8 µM: HCT-15

Cc1cccc(C(=O)O)c1CC1NCCC2c3ccccc3NC12 (stereo not given)
> 100 µM: HCT-15
inactive: UO-31 > 100 µM | SNB-75 > 100 µM | PC-3 > 100 µM | SK-MEL-28 > 100 µM | MDA-N > 100 µM | A498 > 100 µM | HOP-62 > 100 µM | Malme-3M > 100 µM | LOX IMVI > 100 µM | MCF7 > 100 µM | SK-OV-3 > 100 µM | UACC-62 > 100 µM | COLO 205 > 100 µM | OVCAR-4 > 100 µM | MDA-MB-231 > 100 µM | NCI/ADR-RES > 100 µM | SK-MEL-2 > 100 µM | SF-539 > 100 µM | MDA-MB-435 > 100 µM
